Experimental findings from patent US20150362508A1, “EFFECTOR T CELL RSISTANCE” (BENAROYA RESEARCH INSTITUTE AT VIRGINIA MASON, priority 2013, published 2015) are described below.

This assay concerns CD4+CD25− T cells (Teff). Nature of the assay: CFSE-based polyclonal suppression assay (aTreg:Teff co-culture 1:4, anti-CD3/anti-CD28 beads). The format is cell-based, human. The settings on record: for percent inhibition (Treg-mediated suppression of Teff proliferation): presence vs absence of STAT3 inhibitor, 200 ng/ml for one hour. The procedure:
The level of Teff suppression was measured using an in vitro assay in which the CD4^+CD25^− T cells of patients with RRMS were co-cultured with in vitro generated Treg from healthy subjects at a Treg to Teff ratio of 1:4 in the presence of anti-CD3/anti-CD28 coated beads and where proliferation is measured using CFSE.
FIGS. 5A, 5B, and 5C relate to a gating strategy for calculation of percent inhibition in a suppression assay and a cytometric analysis of phosphorylated STAT3 and IL-6Rα surface expression. Referring to FIG. 5A, FACS analysis was performed on day 4 by gating on live cells and excluding the CFSE low population (unstained Treg) to determine the percent of the responder cells that have diluted CFSE. The percent inhibition was determined by comparing the percent of proliferating Teff cells cultured alone to the percent of proliferating Teff cells in co-culture with in vitro generated Treg at a ratio 1:4 (Treg:responder cells).
IL-6 mediated Teff resistance can be reversed through the use of a STAT3 inhibitor (Goodman, W. A., et al., J. Immunol. 186(6), 3336-3345 (2011)). […] Suppression assays were performed in the presence of the STAT3 inhibitor using the same source of control Treg for RRMS and control Teff cells. In FIG. 2D, the percent inhibition for controls (n=3) and RRMS (n=3) subjects in the presence or absence of a STAT3 inhibitor, STATTIC V, was compared using a paired Student t-test.
To determine whether IL-6R mediated signaling could alter suppression in the assay system, Teff were cultured from healthy subjects in the presence or absence of IL-6 in the in vitro co-culture system and assessed percent inhibition on day 4. […] Referring to FIG. 11, CFSE-labeled CD4^+CD25^− T cells were cultured at a ratio of 1:4 (control aTreg:control Teff) either in the absence or presence of 50 ng/ml IL-6 and activated with anti-CD3/anti-CD28 coated beads. FACS analysis was performed to determine percent inhibition on day 4 and data is represented by using a paired analysis (Correlation coefficient (r) 0.8934).
CD4^+CD25^− responder cells were isolated as described above via negative selection using Miltenyi microbeads. Allogeneic CD4^+CD25^− T cells were carboxyfluorescein succinimidyl ester (CFSE)-labelled and cultured at a ratio of 1:4 with aTregs and Dynabeads® (M-450 CD3/CD28 T, Dynal Biotech A.S.A./Life Technologies Corporation, Grand Island, N.Y.) at a ratio of 1:5 (beads:responder cells) as described previously (Schneider, A., and Buckner, J. H., Methods Mol. Biol. 707, 233-241 (2011)). […] Data was acquired using CellQuest™ Pro software (BD Bioscience) and analyzed by FlowJo (Tree Star).

On to “IL-6: recombinant human IL-6 from BD Pharmingen, pro-inflammatory cytokine”, for which, under “control aTreg:control Teff 1:4, absence vs presence of 50 ng/ml IL-6, day 4, p=0.02, FIG. 11”, the “suppression by Treg (percent inhibition)” value is reported as “significantly decreased”. Under “cultures with Teff alone, healthy subjects, absence vs presence of 50 ng/ml IL-6”, the “proliferation of Teff” value is “unaffected”.

In the case of `O=[N+]([O-])c1ccc2c(c1)S(=O)(=O)C=C2` [STATTIC V], the “percent inhibition (Treg-mediated suppression of Teff proliferation)” value (RRMS subjects' Teff (n=3), day 4, p<0.01, FIG. 2D) is recorded as “more marked increase in suppression” and the “percent inhibition (Treg-mediated suppression of Teff proliferation)” value (control subjects' Teff (n=3), day 4, FIG. 2D) is reported as “enhanced suppression”.
